For two molecules, growth results are on record in ChEMBL document CHEMBL3774317, “Design and synthesis of novel tamoxifen analogues that avoid CYP2D6 metabolism” (Eur J Med Chem, 2016).

Structures are written as SMILES.

Common to all, as to type: functional
A short description of experiment [1]: Cytotoxicity against human OVCAR4 cells assessed as cell growth at 10^-6 M after 48 hrs by SRB assay. The note with it: OVCAR-4, 48 h, read-out: Activity. In general terms: Sulforhodamine B stains cellular protein and so reports cell mass.
Experiment [2] is described as follows: Cytotoxicity against human LOXIMVI cells assessed as cell growth at 10^-8 M after 48 hrs by SRB assay. The following applies: LOX IMVI, read-out: Activity.
The nature of experiment [3]: Cytotoxicity against human PC3 cells assessed as cell growth at 10^-5 M after 48 hrs by SRB assay. The note with it: PC-3, 48 h, read-out: Activity.
Experiment [4] is described as follows: Cytotoxicity against human SF539 cells assessed as cell growth at 10^-7 M after 48 hrs by SRB assay. The note with it: SF-539, 48 h, read-out: Activity.
Experiment [5] can be described thus: Cytotoxicity against human HCT116 cells assessed as cell growth at 10^-5 M after 48 hrs by SRB assay. The following applies: HCT-116, 48 h, read-out: Activity.
A short description of experiment [6]: Cytotoxicity against human LOXIMVI cells assessed as cell growth at 10^-6 M after 48 hrs by SRB assay. The following applies: LOX IMVI, read-out: Activity.
The subject of another experiment is ACHN. Nature of the experiment: Cytotoxicity against human ACHN cells assessed as cell growth at 10^-8 M after 48 hrs by SRB assay. The note with it: read-out: Activity.
In experiment [7] the test system is M14. Nature of the experiment: Cytotoxicity against human M14 cells assessed as cell growth at 10^-8 M after 48 hrs by SRB assay. The following applies: M14, 48 h, read-out: Activity.
The next experiment relates to U-251. Nature of the experiment: Cytotoxicity against human U251 cells assessed as cell growth at 10^-7 M after 48 hrs by SRB assay. The following applies: U-251, 48 h, read-out: Activity.
The subject of a further experiment is NCI-H522. Nature of the experiment: Cytotoxicity against human NCI-H522 cells assessed as cell growth at 10^-8 M after 48 hrs by SRB assay. The note with it: NCI-H522, 48 h, read-out: Activity.
Experiment [8] is described as follows: Cytotoxicity against human COLO205 cells assessed as cell growth at 10^-7 M after 48 hrs by SRB assay. The following applies: COLO 205, 48 h, read-out: Activity.
Experiment [9] can be described thus: Cytotoxicity against human SKOV3 cells assessed as cell growth at 10^-5 M after 48 hrs by SRB assay. The note with it: SK-OV-3, 48 h, read-out: Activity.
Experiment [10] concerns K562. Nature of the experiment: Cytotoxicity against human K562 cells assessed as cell growth at 10^-8 M after 48 hrs by SRB assay. The following applies: K562, 48 h, read-out: Activity.
For another experiment, the system named is MDA-MB-231. Nature of the experiment: Cytotoxicity against human MDA-MB-231 cells assessed as cell growth at 10^-6 M after 48 hrs by SRB assay. The following applies: MDA-MB-231, 48 h, read-out: Activity.
Experiment [11] is described as follows: Cytotoxicity against human Caki1 cells assessed as cell growth at 10^-6 M after 48 hrs by SRB assay. The following applies: CAKI-1, 48 h, read-out: Activity.
The subject of experiment [12] is SN12C. Nature of the experiment: Cytotoxicity against human SN12C cells assessed as cell growth at 10^-6 M after 48 hrs by SRB assay. The following applies: read-out: Activity.
Experiment [13] has as its system SK-MEL-5. Nature of the experiment: Cytotoxicity against human SK-MEL-5 cells assessed as cell growth at 10^-4 M after 48 hrs by SRB assay. The following applies: SK-MEL-5, 48 h, read-out: Activity.
In experiment [14] the test system is SN12C. Nature of the experiment: Cytotoxicity against human SN12C cells assessed as cell growth at 10^-7 M after 48 hrs by SRB assay. The following applies: read-out: Activity.
Experiment [15] can be described thus: Cytotoxicity against human UO31 cells assessed as cell growth at 10^-4 M after 48 hrs by SRB assay. The following applies: UO-31, 48 h, read-out: Activity.
For a further experiment, the system named is Malme-3M. Nature of the experiment: Cytotoxicity against human MALME-3M cells assessed as cell growth at 10^-5 M after 48 hrs by SRB assay. The following applies: read-out: Activity.
In a further experiment the test system is A549. Nature of the experiment: Cytotoxicity against human A549 cells assessed as cell growth at 10^-6 M after 48 hrs by SRB assay. The following applies: A549, 48 h, read-out: Activity.
Experiment [16] is described as follows: Cytotoxicity against human PC3 cells assessed as cell growth at 10^-8 M after 48 hrs by SRB assay. The note with it: PC-3, 48 h, read-out: Activity.
Experiment [17] deals with M14. Nature of the experiment: Cytotoxicity against human M14 cells assessed as cell growth at 0.5 uM after 48 hrs by SRB assay. The note with it: M14, 48 h, read-out: Activity.
Experiment [18] can be described thus: Cytotoxicity against human UACC257 cells assessed as cell growth at 50 nM after 48 hrs by SRB assay. The note with it: UACC-257, 48 h, read-out: Activity.
A short description of experiment [19]: Cytotoxicity against human UACC62 cells assessed as cell growth at 5 uM after 48 hrs by SRB assay. The note with it: UACC-62, 48 h, read-out: Activity.
Experiment [20] is described as follows: Cytotoxicity against human SW620 cells assessed as cell growth at 5 uM after 48 hrs by SRB assay. The following applies: SW-620, 48 h, read-out: Activity.
Experiment [21] has as its system M14. Nature of the experiment: Cytotoxicity against human M14 cells assessed as cell growth at 50 nM after 48 hrs by SRB assay. The note with it: M14, 48 h, read-out: Activity.
Experiment [22] is described as follows: Cytotoxicity against human TK10 cells assessed as cell growth at 50 nM after 48 hrs by SRB assay. The note with it: TK-10, 48 h, read-out: Activity.
Experiment [23] concerns SK-MEL-5. Nature of the experiment: Cytotoxicity against human SK-MEL-5 cells assessed as cell growth at 50 uM after 48 hrs by SRB assay. The following applies: SK-MEL-5, 48 h, read-out: Activity.
The test system of a further experiment is A498. Nature of the experiment: Cytotoxicity against human A498 cells assessed as cell growth at 50 nM after 48 hrs by SRB assay. The following applies: A498, 48 h, read-out: Activity.
The nature of experiment [24]: Cytotoxicity against human SF539 cells assessed as cell growth at 5 uM after 48 hrs by SRB assay. The note with it: SF-539, 48 h, read-out: Activity.
Experiment [25] in a line: Cytotoxicity against human HOP62 cells assessed as cell growth at 5 uM after 48 hrs by SRB assay. The note with it: HOP-62, 48 h, read-out: Activity.
Experiment [26] is described as follows: Cytotoxicity against human PC3 cells assessed as cell growth at 5 nM after 48 hrs by SRB assay. The note with it: PC-3, 48 h, read-out: Activity.
The next experiment deals with NCI-H322M. Nature of the experiment: Cytotoxicity against human NCI-H322M cells assessed as cell growth at 50 uM after 48 hrs by SRB assay. The following applies: read-out: Activity.
In experiment [27] the test system is K562. Nature of the experiment: Cytotoxicity against human K562 cells assessed as cell growth at 50 nM after 48 hrs by SRB assay. The following applies: K562, 48 h, read-out: Activity.
For another experiment, the system named is MDA-MB-468. Nature of the experiment: Cytotoxicity against human MDA-MB-468 cells assessed as cell growth at 50 uM after 48 hrs by SRB assay. The note with it: MDA-MB-468, 48 h, read-out: Activity.
A short description of experiment [28]: Cytotoxicity against human OVCAR3 cells assessed as cell growth at 5 nM after 48 hrs by SRB assay. The following applies: OVCAR-3, 48 h, read-out: Activity.
A short description of experiment [29]: Cytotoxicity against human Caki1 cells assessed as cell growth at 5 nM after 48 hrs by SRB assay. The following applies: CAKI-1, 48 h, read-out: Activity.
Experiment [30] is described as follows: Cytotoxicity against human RPMI8226 cells assessed as cell growth at 50 nM after 48 hrs by SRB assay. The note with it: RPMI-8226, 48 h, read-out: Activity.
The test system of a further experiment is KM12. Nature of the experiment: Cytotoxicity against human KM12 cells assessed as cell growth at 50 nM after 48 hrs by SRB assay. The note with it: KM12, 48 h, read-out: Activity.
Experiment [31] can be described thus: Cytotoxicity against human SW620 cells assessed as cell growth at 5 nM after 48 hrs by SRB assay. The following applies: SW-620, 48 h, read-out: Activity.
Experiment [32] is described as follows: Cytotoxicity against human IGROV1 cells assessed as cell growth at 5 nM after 48 hrs by SRB assay. The following applies: IGROV-1, 48 h, read-out: Activity.

Consider `C/C(=C(/c1ccc(O)cc1)c1ccc(OCCN2CCCC2)cc1)c1ccccc1`, for which the growth at 1 µM in [1] turned out to be 89%; in experiment [6] it was 92%; in the experiment on MDA-MB-231, 122%; in experiment [11], 81%; in the experiment on SN12C [12] it was 101%; in the experiment with A549 it was 106%. Besides, the growth at 0.01 µM was found to be 98% in experiment [2]; 93% with ACHN; 92% in the experiment on M14 [7]; 88% in the experiment on NCI-H522; 99% with K562 [10]; 104% in experiment [16]. Besides, the growth at 10 µM in experiment [3] was 19%; in [5] it was 1%; in experiment [9], 13%; with Malme-3M it was -77%. The growth at 0.1 µM was determined as 101% in experiment [4], 100% with U-251, 96% in experiment [8] and 104% in the experiment on SN12C [14]. Besides, the results for the growth at 100 µM (with SK-MEL-5 [13]; in experiment [15]) were -100% and -92%, respectively.
`CCCCCCCCCC(=O)Oc1ccc(/C(=C(/C)c2ccccc2)c2ccc(OCCN3CCCC3)cc2)cc1`: in the experiment with M14 [17], the growth at 0.5 µM is 42%. Moreover, the growth at 0.05 µM stood at 102% in experiment [18]; 94% with M14 [21]; 97% in experiment [22]; 53% in the experiment with A498; 95% in the experiment on K562 [27]; 100% in experiment [30]. Besides, the growth at 0.05 µM with KM12 amounted to 98%. For the same molecule, the growth at 5 µM stood at 100% in [19], 95% in experiment [20], 92% in [24] and 91% in experiment [25]. The results for the growth at 50 µM in the experiment on SK-MEL-5 [23], in the experiment on NCI-H322M and in the experiment with MDA-MB-468 were -100%, -86% and -87%, respectively. Moreover, the growth at 0.005 µM was determined as 100% in experiment [26]; 108% in experiment [28]; 88% in experiment [29]; 96% in experiment [31]; 108% in [32].
